# Data as given in US20250312352A1, “GLP-1R MODULATING COMPOUNDS” (Gilead Sciences, Inc., priority 2021, published 2025).
# pEC50: −log10 of the molar value.
# Biological target: T1, GLP-1R (Homo sapiens, UniProt P43220)
# T1 construct: host or cells: CHO cells
# Assay: GLP-1R activation cAMP assay (Assay 1 or Assay 2)
# Format: cell-based
# Conditions: cAMP increase in CHO cells stably expressing GLP-1R; compounds run on one of the two cAMP assays
# In short: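 EC50 values come from a sigmoidal fit of HTRF-detected cAMP rise versus log agonist concentration. GLP-1R-expressing CHO cells, equilibrated 1 h at 37 °C in HBSS with HEPES and BSA, received a 10-point compound dose series for 30 min before detection.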
# T1 sequence (P43220 24-463): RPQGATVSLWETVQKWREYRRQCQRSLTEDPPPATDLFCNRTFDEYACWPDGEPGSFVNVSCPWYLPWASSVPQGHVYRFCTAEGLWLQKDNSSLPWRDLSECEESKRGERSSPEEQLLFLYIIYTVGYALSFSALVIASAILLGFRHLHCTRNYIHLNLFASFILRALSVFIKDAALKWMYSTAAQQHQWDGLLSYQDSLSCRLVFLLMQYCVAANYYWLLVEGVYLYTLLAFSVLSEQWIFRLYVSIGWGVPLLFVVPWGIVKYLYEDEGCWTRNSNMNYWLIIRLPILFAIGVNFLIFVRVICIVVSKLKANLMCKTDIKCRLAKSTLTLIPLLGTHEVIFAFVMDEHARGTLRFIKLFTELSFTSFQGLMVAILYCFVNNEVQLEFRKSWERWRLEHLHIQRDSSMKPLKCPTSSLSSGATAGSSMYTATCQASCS
row,Structure (SMILES),pEC50
1,"COc1nnc(COc2nc(-c3cc(Cl)c(Cc4nc5c(F)cc(C(=O)O)cc5n4C[C@@H]4CCO4)cc3C)ccc2F)s1 [Example 443, (S)-2-(2-chloro-4-(5-fluoro-6-((5-methoxy-1,3,4-thiadiazol-2-yl)methoxy)pyridin-2-yl)-5-methylbenzyl)-4-fluoro-1-(oxetan-2-ylmethyl)-1H-benzo[d]imidazole-6-carboxylic acid]",8.46
2,"Cn1nc(COc2cccc(-c3cc(F)c(Cc4nc5ccc(C(=O)O)cc5n4C[C@@H]4CCO4)cc3F)n2)cc1-c1cnn(C(F)F)c1 [Example 110, (S)-2-(4-(6-((1′-(difluoromethyl)-2-methyl-1′H,2H-[3,4′-bipyrazol]-5-yl)methoxy)pyridin-2-yl)-2,5-difluorobenzyl)-1-(oxetan-2-ylmethyl)-1H-benzo[d]imidazole-6-carboxylic acid]",9.02
3,"Cn1cc(C#Cc2cc(F)c(COc3cccc(-c4cc(F)c(Cc5nc6ccc(C(=O)O)cc6n5C[C@@H]5CCO5)cc4F)n3)cn2)cn1 [Example 144, (S)-2-(2,5-difluoro-4-(6-((4-fluoro-6-((1-methyl-1H-pyrazol-4-yl)ethynyl)pyridin-3-yl)methoxy)pyridin-2-yl)benzyl)-1-(oxetan-2-ylmethyl)-1H-benzo[d]imidazole-6-carboxylic acid]",9.00
4,"Cc1nc(COc2cccc(-c3cc(F)c(Cc4nc5ccc(C(=O)O)cc5n4C[C@@H]4CCO4)cc3F)n2)sc1Br [Example 27, (S)-2-(4-(6-((5-bromo-4-methylthiazol-2-yl)methoxy)pyridin-2-yl)-2,5-difluorobenzyl)-1-(oxetan-2-ylmethyl)-1H-benzo[d]imidazole-6-carboxylic acid]",10.10
5,"Cn1nc(COc2cccc(-c3cc(F)c(Cc4nc5ccc(C(=O)O)cc5n4C[C@@H]4CCO4)cc3F)n2)cc1Cl [Example 38, (S)-2-(4-(6-((5-chloro-1-methyl-1H-pyrazol-3-yl)methoxy)pyridin-2-yl)-2,5-difluorobenzyl)-1-(oxetan-2-ylmethyl)-1H-benzo[d]imidazole-6-carboxylic acid]",9.22
6,"Cn1nncc1C#Cc1ccc(COc2cccc(-c3cc(F)c(Cc4nc5ccc(C(=O)O)cc5n4C[C@@H]4CCO4)cc3F)n2)c(F)n1 [Example 278, (S)-2-(2,5-difluoro-4-(6-((2-fluoro-6-((1-methyl-1H-1,2,3-triazol-5-yl)ethynyl)pyridin-3-yl)methoxy)pyridin-2-yl)benzyl)-1-(oxetan-2-ylmethyl)-1H-benzo[d]imidazole-6-carboxylic acid]",9.21
7,"O=C(O)c1cc(F)c2nc(Cc3c(F)cc(-c4ccc(F)c(OCc5ncc(C(F)(F)F)s5)n4)c(F)c3F)n(C[C@@H]3CCO3)c2c1 [Example 447, (S)-4-fluoro-1-(oxetan-2-ylmethyl)-2-(2,3,6-trifluoro-4-(5-fluoro-6-((5-(trifluoromethyl)thiazol-2-yl)methoxy)pyridin-2-yl)benzyl)-1H-benzo[d]imidazole-6-carboxylic acid]",10.70
8,"COc1nc(C#Cc2cnn(C)c2)ccc1COc1cccc(-c2cc(F)c(Cc3nc4ccc(C(=O)O)cc4n3C[C@@H]3CCO3)cc2F)n1 [Example 360, (S)-2-(2,5-difluoro-4-(6-((2-methoxy-6-((1-methyl-1H-pyrazol-4-yl)ethynyl)pyridin-3-yl)methoxy)pyridin-2-yl)benzyl)-1-(oxetan-2-ylmethyl)-1H-benzo[d]imidazole-6-carboxylic acid]",9.76
9,"CCOc1nnc(COc2nc(-c3cc(F)c(Cc4nc5ccc(C(=O)O)cc5n4[C@@H]4COCC4(C)C)cc3C)ccc2F)s1 [Example 262, (S)-1-(4,4-dimethyltetrahydrofuran-3-yl)-2-(4-(6-((5-ethoxy-1,3,4-thiadiazol-2-yl)methoxy)-5-fluoropyridin-2-yl)-2-fluoro-5-methylbenzyl)-1H-benzo[d]imidazole-6-carboxylic acid]",9.87
10,"COc1cc(C(=O)NC2(C#N)CC2)ncc1COc1cccc(-c2cc(F)c(Cc3nc4ccc(C(=O)O)cc4n3C[C@@H]3CCO3)cc2F)n1 [Example 41, (S)-2-(4-(6-((6-((1-cyanocyclopropyl)carbamoyl)-4-methoxypyridin-3-yl)methoxy)pyridin-2-yl)-2,5-difluorobenzyl)-1-(oxetan-2-ylmethyl)-1H-benzo[d]imidazole-6-carboxylic acid]",9.77
11,"CNC(=O)c1cc(Cl)c(COc2cccc(-c3cc(Cl)c(Cc4nc5c(F)cc(C(=O)O)cc5n4CCOC)cc3F)n2)cn1 [Example 386, 2-(2-chloro-4-(6-((4-chloro-6-(methylcarbamoyl)pyridin-3-yl)methoxy)pyridin-2-yl)-5-fluorobenzyl)-4-fluoro-1-(2-methoxyethyl)-1H-benzo[d]imidazole-6-carboxylic acid]",9.92
12,"O=C(O)c1ccc2nc(Cc3cc(F)c(-c4cccc(OCc5cncs5)n4)cc3F)n(C[C@@H]3CCO3)c2c1 [Example 167, (S)-2-(2,5-difluoro-4-(6-(thiazol-5-ylmethoxy)pyridin-2-yl)benzyl)-1-(oxetan-2-ylmethyl)-1H-benzo[d]imidazole-6-carboxylic acid]",9.06
13,"Cc1cc(Cc2nc3c(F)cc(C(=O)O)cc3n2C[C@@H]2CCO2)c(F)cc1-c1cccc(OCc2ccc(C#Cc3cnn(C)c3)cc2F)n1 [Example 153, (S)-4-fluoro-2-(2-fluoro-4-(6-((2-fluoro-4-((1-methyl-1H-pyrazol-4-yl)ethynyl)benzyl)oxy)pyridin-2-yl)-5-methylbenzyl)-1-(oxetan-2-ylmethyl)-1H-benzo[d]imidazole-6-carboxylic acid]",9.44
14,"Cc1cc(COc2cccc(-c3cc(F)c(Cc4nc5ccc(C(=O)O)cc5n4C[C@@H]4CCO4)cc3F)n2)nn1C [Example 72, (S)-2-(4-(6-((1,5-dimethyl-1H-pyrazol-3-yl)methoxy)pyridin-2-yl)-2,5-difluorobenzyl)-1-(oxetan-2-ylmethyl)-1H-benzo[d]imidazole-6-carboxylic acid]",9.09
15,"O=C(O)c1ccc2nc(Cc3cc(F)c(-c4cccc(OCc5ncc(C(F)F)s5)n4)cc3F)n(C[C@@H]3CCO3)c2c1 [Example 58, (S)-2-(4-(6-((5-(difluoromethyl)thiazol-2-yl)methoxy)pyridin-2-yl)-2,5-difluorobenzyl)-1-(oxetan-2-ylmethyl)-1H-benzo[d]imidazole-6-carboxylic acid]",9.85

# Further molecules by rising pEC50, results first:
row,pEC50,Structure (SMILES)
1,9.05,"O=C(O)c1ccc2nc(Cc3cc(F)c(-c4cccc(OCc5ncc(C6CC6)o5)n4)cc3F)n(C[C@@H]3CCO3)c2c1 [Example 63, (S)-2-(4-(6-((5-cyclopropyloxazol-2-yl)methoxy)pyridin-2-yl)-2,5-difluorobenzyl)-1-(oxetan-2-ylmethyl)-1H-benzo[d]imidazole-6-carboxylic acid]"
2,9.30,"NC(=O)c1csc(COc2cccc(-c3cc(F)c(Cc4nc5ccc(C(=O)O)cc5n4C[C@@H]4CCO4)cc3F)n2)n1 [Example 5, (S)-2-(4-(6-((4-carbamoylthiazol-2-yl)methoxy)pyridin-2-yl)-2,5-difluorobenzyl)-1-(oxetan-2-ylmethyl)-1H-benzo[d]imidazole-6-carboxylic acid]"
3,9.61,"CC1(C#Cc2nnc(COc3cccc(-c4cc(F)c(Cc5nc6ccc(C(=O)O)cc6n5C[C@@H]5CCO5)cc4F)n3)s2)CC1 [Example 321, (S)-2-(2,5-difluoro-4-(6-((5-((1-methylcyclopropyl)ethynyl)-1,3,4-thiadiazol-2-yl)methoxy)pyridin-2-yl)benzyl)-1-(oxetan-2-ylmethyl)-1H-benzo[d]imidazole-6-carboxylic acid]"
4,9.66,"O=C(O)c1ccc2nc(Cc3cc(F)c(-c4cccc(OCc5cnc(-c6cn(C7COC7)nn6)cc5F)n4)cc3F)n(C[C@@H]3CCO3)c2c1 [Example 236, 2-[[2,5-difluoro-4-[6-[[4-fluoro-6-[1-(oxetan-3-yl)triazol-4-yl]-3-pyridyl]methoxy]-2-pyridyl]phenyl]methyl]-3-[[(2S)-oxetan-2-yl]methyl]benzimidazole-5-carboxylic acid]"
5,9.77,"CNC(=O)c1cc(F)c(COc2cccc(-c3cc(F)c(Cc4nc5ccc(C(=O)O)cc5n4C[C@@H]4CCO4)cc3F)n2)cn1 [Example 243, 2-[[2,5-difluoro-4-[6-[[4-fluoro-6-(methylcarbamoyl)-3-pyridyl]methoxy]-2-pyridyl]phenyl]methyl]-3-[[(2S)-oxetan-2-yl]methyl]benzimidazole-5-carboxylic acid]"
6,9.96,"Cn1nccc1CNC(=O)c1cc(Cl)c(COc2cccc(-c3cc(F)c(Cc4nc5ccc(C(=O)O)cc5n4C[C@@H]4CCO4)cc3F)n2)cn1 [Example 195, (S)-2-(4-(6-((4-chloro-6-(((1-methyl-1H-pyrazol-5-yl)methyl)carbamoyl)pyridin-3-yl)methoxy)pyridin-2-yl)-2,5-difluorobenzyl)-1-(oxetan-2-ylmethyl)-1H-benzo[d]imidazole-6-carboxylic acid]"
7,10.11,"O=C(O)c1cc(F)c2nc(Cc3cc(F)c(-c4cccc(OCc5ncc(C#CC6(CF)CC6)cc5Cl)n4)cc3F)n(C[C@@H]3CCO3)c2c1 [Example 380, (S)-2-(4-(6-((3-chloro-5-((1-(fluoromethyl)cyclopropyl)ethynyl)pyridin-2-yl)methoxy)pyridin-2-yl)-2,5-difluorobenzyl)-4-fluoro-1-(oxetan-2-ylmethyl)-1H-benzo[d]imidazole-6-carboxylic acid]"
8,10.22,"O=C(O)c1ccc2nc(Cc3cc(F)c(-c4cccc(OCc5ncc(-c6cnco6)s5)n4)cc3F)n(C[C@@H]3CCO3)c2c1 [Example 93, (S)-2-(2,5-difluoro-4-(6-((5-(oxazol-5-yl)thiazol-2-yl)methoxy)pyridin-2-yl)benzyl)-1-(oxetan-2-ylmethyl)-1H-benzo[d]imidazole-6-carboxylic acid]"
9,10.24,"CC(F)(F)c1cnc(COc2nc(-c3cc(F)c(Cc4nc5ccc(C(=O)O)cc5n4[C@@H]4COCC4(C)C)cc3F)ccc2F)s1 [Example 340, (S)-2-(4-(6-((5-(1,1-difluoroethyl)thiazol-2-yl)methoxy)-5-fluoropyridin-2-yl)-2,5-difluorobenzyl)-1-(4,4-dimethyltetrahydrofuran-3-yl)-1H-benzo[d]imidazole-6-carboxylic acid]"
